The record followed here is patent publication US20240360151A1 (SANOFI, priority 2023, published 2024).

One experiment has as its target T1, NLRP3 inflammasome (Homo sapiens, UniProt Q96P20).
T1 construct: endogenous in cells; host or cells: THP-1 monocytic cells
Kind of experiment: IL-1β secretion assay (NLRP3 IC50) in LPS-primed, nigericin-activated THP-1 cells, HTRF. The format is cell-based. The following applies: monocytic THP-1 cells; LPS 10 ng/mL 3 h priming, then compound + nigericin 10 μM 2 h; relative IC50, 10 concentrations, geometric mean. The method in brief:
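THP-1 cells primed with LPS 10 ng/mL for 3 h at 37° C., then compound (10-point 1:3 dilution, 0.1% DMSO) added with 10 μM nigericin for 2 h. Supernatant IL-1β measured by HTRF; relative IC50 from a 4-parameter logistic fit, reported as geometric mean.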

Experiment [1] deals with NF-kB pathway (TNF-α secretion by THP-1 cells). Kind of experiment: TNF-α secretion assay in LPS-stimulated THP-1 cells, Lumit immunoassay. The format is cell-based, human. The following applies: Homo sapiens, THP-1, 3 h, monocytic THP-1 cells, LPS 10 ng/mL, relative IC50, 10 concentrations, geometric mean. How it is done:
Monocytic THP-1 cells were maintained in RPMI 1640 media (Gibco 21875)+10% FBS, (Gibco 10500)+1% penicillin/streptomycin (Gibco 15140-122). Cells were then plated at 40,000 cells per well in 384-well cell culture plates (Corning 3542) and maintained with RPMI1640 (Gibco 11835)+5% FBS, (Gibco 10500). Experimental compounds were prepared and added as described above. TNF-α secretion was triggered by the addition of 10 ng/mL LPS (invivoGen, tlrl-3pelps) and cells were incubated for 3 hours. TNF-α levels were monitored directly in the cells plate using an Lumit assay (Lumit TNFa-Human Immunoassay—Promega W6051) according to manufacturers' instructions.
Data were expressed as percentage of inhibition (I %) as compared to a maximum signal control containing no small molecule (I %=0%) according to the formula: 1%=(1−((Sample−Min))/((Max−Min)))×100, where: • Sample: Signal obtained in the presence of each compound tested, • Max: Maximum signal in the absence of compound added, • Min: Minimum or background signal obtained in the absence of activation signal.
Relative IC50 (IC50 rel) were obtained from a dose response curve with 10 concentrations. Final IC50 rels are expressed as the geometric mean.
Relative IC50 values were estimated with Biost@t-SPEED v2.4 internal software based on SAS system using the 4-parameter logistic model according to Ratkovsky and Reedy (D. A. Ratkovsky, T. J. Reedy, Choosing near-linear parameters in the four parameters logistic model radioligands and related assays. Biometrics, 42 (1986), 575-582): Y=A+C/((1+exp(−B*(log(X)−M)))), where: • A: Lower asymptote (BOTTOM), • A+C: Upper asymptote (TOP), • M: the logarithm of the concentration estimated at the inflexion point (the logarithm of the relative IC50), • B: Slope at the inflexion point of the curve.

T1 sequence (Q96P20 whole entry): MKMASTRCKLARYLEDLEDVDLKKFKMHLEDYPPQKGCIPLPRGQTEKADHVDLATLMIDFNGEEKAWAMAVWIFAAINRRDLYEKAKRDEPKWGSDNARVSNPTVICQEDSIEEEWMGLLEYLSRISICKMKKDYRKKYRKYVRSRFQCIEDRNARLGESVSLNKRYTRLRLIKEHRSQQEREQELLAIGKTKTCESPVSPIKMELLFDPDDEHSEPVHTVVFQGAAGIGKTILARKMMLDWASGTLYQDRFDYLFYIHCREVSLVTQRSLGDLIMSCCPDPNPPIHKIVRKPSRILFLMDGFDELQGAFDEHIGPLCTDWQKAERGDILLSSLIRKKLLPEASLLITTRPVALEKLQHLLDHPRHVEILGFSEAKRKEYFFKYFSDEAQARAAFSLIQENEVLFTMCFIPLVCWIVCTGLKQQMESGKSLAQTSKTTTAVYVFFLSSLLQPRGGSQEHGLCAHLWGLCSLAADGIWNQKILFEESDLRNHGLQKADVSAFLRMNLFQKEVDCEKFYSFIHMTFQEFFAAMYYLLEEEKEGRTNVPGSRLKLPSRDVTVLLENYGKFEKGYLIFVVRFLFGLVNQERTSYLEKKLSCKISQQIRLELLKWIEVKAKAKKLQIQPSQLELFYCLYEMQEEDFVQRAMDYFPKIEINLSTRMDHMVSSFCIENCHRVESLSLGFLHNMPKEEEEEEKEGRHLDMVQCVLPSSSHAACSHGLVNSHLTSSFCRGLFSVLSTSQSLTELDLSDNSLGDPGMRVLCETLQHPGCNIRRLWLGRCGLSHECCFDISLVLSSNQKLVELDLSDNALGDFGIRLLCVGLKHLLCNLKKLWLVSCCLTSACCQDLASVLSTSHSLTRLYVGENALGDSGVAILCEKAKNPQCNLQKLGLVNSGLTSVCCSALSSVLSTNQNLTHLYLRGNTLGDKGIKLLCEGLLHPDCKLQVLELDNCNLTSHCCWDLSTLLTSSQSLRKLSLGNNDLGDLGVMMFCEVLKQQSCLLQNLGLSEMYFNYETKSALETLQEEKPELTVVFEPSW

Consider `CCN1C[C@@H]2CCN(c3ccc(-c4c(C)cc(C(F)(F)F)cc4O)nn3)[C@@H]2C1` (racemic) [Example 243, 2-[6-[rac-(3aS,6aS)-5-ethyl-2,3,3a,4,6,6a-hexahydropyrrolo[3,4-b]pyrrol-1-yl]pyridazin-3-yl]-3-methyl-5-(trifluoromethyl)phenol], for which the figures for the IC50 (on NLRP3 inflammasome; in experiment [1]) were 21 nM and over 10000 nM, respectively.
Regarding `Cc1cc(Cl)cc(O)c1-c1ccc(N2CCO[C@@H](CNC(=O)C(C)C)C2)nn1` [Example 285, N-[[(2S)-4-[6-(4-chloro-2-hydroxy-6-methylphenyl)pyridazin-3-yl]morpholin-2-yl]methyl]-2-methylpropanamide], the figures for the IC50 (at NLRP3 inflammasome; in experiment [1]) were 65 nM and over 10000 nM, respectively.
On the same counts, the results for `CCc1cccc(O)c1-c1cc(C(F)F)c(N2CCO[C@@H]3CCN(C)C[C@@H]32)nn1` [Example 425, 2-[6-[(4aS,8aR)-6-methyl-3,4a,5,7,8,8a-hexahydro-2H-pyrido[4,3-b][1,4]oxazin-4-yl]-5-(difluoromethyl)pyridazin-3-yl]-3-ethyl-phenol] are 55 nM and over 10000 nM.
In the case of `CC(=O)N1CC[C@H]2OCCN(c3ccc(-c4c(C)cc(C(F)(F)F)cc4O)nn3)[C@H]2C1` (single isomer, unassigned) [Example 262], the results for the IC50 (at NLRP3 inflammasome; in experiment [1]) were 17 nM and over 10000 nM, respectively.
For the molecule `CCN1CC[C@H]2OCCN(c3ccc(-c4c(C)cc(Cl)cc4O)nn3)[C@H]2C1` (single isomer, unassigned) [Example 313], the IC50 at NLRP3 inflammasome was 0.3 nM; in experiment [1], over 10000 nM.
Consider `NC[C@@H]1CCCN(c2ccc(-c3c(O)cc(Cl)cc3Cl)nn2)C1` [Example 18, 2-[6-[(3S)-3-(aminomethyl)-1-piperidyl]pyridazin-3-yl]-3,5-dichloro-phenol], for which the IC50 is 173 nM at NLRP3 inflammasome and over 10000 nM in experiment [1].
Consider `Cc1cc(C)c(-c2ccc(N3CCOC[C@H]3CO)nn2)c(O)c1` [Example 5, 2-[6-[(3R)-3-(hydroxymethyl)morpholin-4-yl]pyridazin-3-yl]-3,5-dimethyl-phenol], for which the IC50 on NLRP3 inflammasome was 290 nM; in experiment [1], over 10000 nM.
For `Cc1cc(N2CC[C@@H]3CCN(C)C[C@@H]32)nnc1-c1ccc(C(F)(F)F)cc1O` (racemic) [Example 340, 2-[4-methyl-6-[rac-(3aS,7aR)-6-methyl-3,3a,4,5,7,7a-hexahydro-2H-pyrrolo[2,3-c]pyridin-1-yl]pyridazin-3-yl]-5-(trifluoromethyl)phenol], in that order: 0.4 nM and over 10000 nM.
`Cc1cc(C)c(-c2ccc(N3CCO[C@H](CO)C3)nn2)c(O)c1` [Example 8, 2-[6-[(2S)-2-(hydroxymethyl)morpholin-4-yl]pyridazin-3-yl]-3,5-dimethyl-phenol]: the results for the IC50 (on NLRP3 inflammasome; in experiment [1]) were 20 nM and over 10000 nM, respectively.
For `Cc1cc(C(F)(F)F)cc(O)c1-c1ccc(N2C[C@H](CO)O[C@H](C)C2)nn1` [Example 302, 2-[6-[(2R,6R)-2-(hydroxymethyl)-6-methyl-morpholin-4-yl]pyridazin-3-yl]-3-methyl-5-(trifluoromethyl)phenol], in that order: 13 nM and over 10000 nM.
In the case of `Cc1cc(C)c(-c2ccc(N3CCO[C@@H](CCO)C3)nn2)c(O)c1` (single isomer, unassigned) [Example 234], the IC50 was 355 nM at NLRP3 inflammasome and over 10000 nM in experiment [1].
For the molecule `Cc1cc(C)c(-c2ccc(N3CCO[C@H](CF)C3)nn2)c(O)c1` [Example 219, 2-[6-[(2S)-2-(fluoromethyl)morpholin-4-yl]pyridazin-3-yl]-3,5-dimethyl-phenol], the IC50 at NLRP3 inflammasome is 103 nM; in experiment [1] it was over 10000 nM.
As for `Cc1cc(C)c(-c2ccc(N3C[C@H]4COC[C@H]4C3)nn2)c(O)c1` [Example 206, 2-[6-[(3aS,6aR)-1,3,3a,4,6,6a-hexahydrofuro[3,4-c]pyrrol-5-yl]pyridazin-3-yl]-3,5-dimethyl-phenol], the IC50 at NLRP3 inflammasome is 325 nM; in experiment [1], over 10000 nM.
